Among the data in ChEMBL document CHEMBL3600337, “Chemoenzymatic synthesis and cytotoxicity of oenanthotoxin and analogues” (Bioorg Med Chem, 2015) are EC50 values, retold here.

Each structure is given as a SMILES string. A value given as a limit tells only on which side of the number the result lay.

The nature of test [1]: Cytotoxicity against human 518A2 cells after 96 hrs by sulforhodamine B assay. It is filed as functional, cell-based. The conditions noted are these: 518A2, 96 h.
The next test has as its system 8505C. In words: Cytotoxicity against human 8505C cells after 96 hrs by sulforhodamine B assay. It is filed as functional, cell-based. A general note: The SRB assay estimates cell density from bound dye.
The test system of the next test is A2780. The experiment in a line: Cytotoxicity against human A2780 cells after 96 hrs by sulforhodamine B assay. It is filed as functional, cell-based. As to conditions: A2780, 96 h.
The test system of another test is A549. In words: Cytotoxicity against human A549 cells after 96 hrs by sulforhodamine B assay. The test is classed as functional, cell-based. As to conditions: A549, 96 h.
The next test relates to HT-29. In words: Cytotoxicity against human HT-29 cells after 96 hrs by sulforhodamine B assay. It is filed as functional, cell-based. As to conditions: HT-29, 96 h.
Another test deals with MCF7. In words: Cytotoxicity against human MCF7 cells after 96 hrs by sulforhodamine B assay. It is filed as functional, cell-based. As to conditions: MCF7, 96 h.
Test [2] can be described thus: Cytotoxicity against mouse NIH/3T3 cells after 96 hrs by sulforhodamine B assay. The test is classed as cell-based. As to conditions: NIH3T3, 96 h.

Take `CCCC(=O)CC/C=C/C=C/C#CC#C/C=C/C=O`: the EC50 (as a rule, the midpoint of the concentration-response curve) in test [1] is more than 30 µM; with 8505C it was 7.1 µM; with A2780, 7 µM; in the test with A549, more than 30 µM; in the test on HT-29, 22.2 µM; with MCF7, 5.9 µM. In test [2], this compound registered an EC50 of 13.2 µM.

Turning to `CCCC(=O)CC/C=C/C=C/C#CC#C/C=C/C(=O)O`, the EC50 in test [1] was more than 30 µM; with 8505C, 19.3 µM; with A2780 it was more than 30 µM; with A549, more than 30 µM; with HT-29, more than 30 µM; in the test on MCF7, more than 30 µM. In test [2], this compound displayed an EC50 of more than 30 µM.

`CCC[C@@H](CC/C=C/C=C/C#CC#C/C=C/COC(C)=O)OC(C)=O`: the EC50 amounted to 14.7 µM in test [1]; 16.8 µM with 8505C; 3.9 µM with A2780; 14.5 µM in the test with A549; 17.9 µM in the test on HT-29; 12.4 µM in the test with MCF7. The same compound displayed an EC50 in test [2] of 11.8 µM.

On to `CCC[C@@H](O)CC/C=C/C=C/C#CC#C/C=C/COC(C)=O`, for which the EC50 in test [1] worked out at 14.9 µM; with 8505C it was 20.3 µM; in the test with A2780 it was 6.8 µM; in the test on A549 it was 20.5 µM; in the test on HT-29, 26.3 µM; with MCF7 it was 21.3 µM. The compound also came in with an EC50 in test [2] of 16.9 µM.

Consider `CCCC(=O)CC/C=C/C=C/C#CC#C/C=C/CO`, for which the EC50 is 19.1 µM in test [1]; 18 µM in the test with 8505C; 4.9 µM in the test with A2780; 19.7 µM in the test on A549; 21.2 µM in the test on HT-29; 234 µM with MCF7. This compound registered an EC50 in test [2] of 11.1 µM.

Consider `CCCC(=O)CC/C=C/C=C/C#CC#C/C=C/COC(=O)c1ccccc1`, for which the half-maximal effective concentration (EC50) is 20.5 µM in test [1]; 4.2 µM in the test on 8505C; more than 30 µM in the test with A2780; 14.4 µM with A549; 7.9 µM in the test on HT-29; more than 30 µM with MCF7. The same compound returned an EC50 in test [2] of 26.7 µM.

On to `CCCC(=O)CC/C=C/C=C/C#CC#C/C=C/COC(C)=O`, for which the EC50 is 9.1 µM in test [1]; 15.6 µM in the test on 8505C; 4.7 µM with A2780; 56.4 µM with A549; more than 30 µM in the test on HT-29; 21.6 µM with MCF7. The response in test [2] was half-maximal at 14.2 µM (EC50).

For `CCC[C@@H](O)CC/C=C/C=C/C#CC#C/C=C/CO` [OENANTHOTOXIN], the EC50 in test [1] was 17.1 µM; with 8505C, 10.5 µM; with A2780, 3.8 µM; with A549, 10.9 µM; with HT-29, more than 30 µM; with MCF7, 20.6 µM. Also, in test [2], the EC50 is 10.1 µM.

In the case of `CCCC(=O)CC/C=C/C=C/C#CC#C/C=C/COC(=O)CCl`, the EC50 in test [1] is 12.6 µM; with 8505C, 19.3 µM; in the test on A2780 it was 3.6 µM; with A549 it was 5.1 µM; with HT-29, more than 30 µM; with MCF7 it was 26.9 µM. Further, the EC50 in test [2] worked out at 11.9 µM.

Consider `C=C(C)[C@@H]1CC[C@]2(C(=O)O)CC[C@]3(C)[C@H](CC[C@@H]4[C@@]5(C)CC[C@H](O)C(C)(C)[C@@H]5CC[C@]43C)[C@@H]12` [BETULINIC ACID], for which the 50% effective concentration (EC50) in test [1] was 11.9 µM; in the test with 8505C it was 6.7 µM; in the test with A2780, 11 µM; with A549, 14.8 µM; with HT-29 it was 13.1 µM; with MCF7, 14.9 µM. In addition, the EC50 in test [2] was 10 µM.
